Measurements from article PMC3069040, “A Conserved Cysteine Motif Is Critical for Rice Ceramide Kinase Activity and Function” (PLoS ONE, 2011).
Values belong to the molecule of their own block, whether it stands above or below them.

Columns and labels:
OsCERK = target: T1, OsCERK (Oryza sativa, UniProt C0LT23); experiment: TLC with NBD fluorescence scan, inhibition of C6-NBD-ceramide phosphorylation; assay type: biochemical
T1 construct: gene CERK; N-terminus from primer MEGGGEAL
T1 sequence (C0LT23 1-607): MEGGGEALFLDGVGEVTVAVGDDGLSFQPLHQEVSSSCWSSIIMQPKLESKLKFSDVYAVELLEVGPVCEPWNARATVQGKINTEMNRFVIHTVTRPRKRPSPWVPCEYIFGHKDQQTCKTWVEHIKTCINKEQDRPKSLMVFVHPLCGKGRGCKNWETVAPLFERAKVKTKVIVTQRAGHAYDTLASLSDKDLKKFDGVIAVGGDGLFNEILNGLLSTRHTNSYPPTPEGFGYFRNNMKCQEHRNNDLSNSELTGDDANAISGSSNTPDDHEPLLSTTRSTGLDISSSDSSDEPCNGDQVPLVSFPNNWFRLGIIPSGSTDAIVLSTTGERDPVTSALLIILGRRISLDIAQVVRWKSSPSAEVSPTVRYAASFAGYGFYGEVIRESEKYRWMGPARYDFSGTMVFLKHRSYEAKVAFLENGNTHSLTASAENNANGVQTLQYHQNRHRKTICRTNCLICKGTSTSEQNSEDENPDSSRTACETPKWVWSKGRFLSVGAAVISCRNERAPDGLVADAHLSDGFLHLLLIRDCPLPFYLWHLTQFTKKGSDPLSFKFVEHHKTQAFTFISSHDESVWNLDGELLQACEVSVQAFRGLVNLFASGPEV

rACD5 = target: T2, rACD5 (Arabidopsis thaliana, UniProt Q6USK2); experiment: TLC with NBD fluorescence scan, turnover; assay type: biochemical; details: ATP 1 mM, 15 mM MgCl2, mixed micelles, 40 °C, 30 min; labelled compound
T2 construct: gene CERK; coding region in pET28b, His-tagged, E. coli BL21 (DE3), Ni-NTA; N-terminus from primer MEEGRDDE
T2 sequence (Q6USK2 1-608): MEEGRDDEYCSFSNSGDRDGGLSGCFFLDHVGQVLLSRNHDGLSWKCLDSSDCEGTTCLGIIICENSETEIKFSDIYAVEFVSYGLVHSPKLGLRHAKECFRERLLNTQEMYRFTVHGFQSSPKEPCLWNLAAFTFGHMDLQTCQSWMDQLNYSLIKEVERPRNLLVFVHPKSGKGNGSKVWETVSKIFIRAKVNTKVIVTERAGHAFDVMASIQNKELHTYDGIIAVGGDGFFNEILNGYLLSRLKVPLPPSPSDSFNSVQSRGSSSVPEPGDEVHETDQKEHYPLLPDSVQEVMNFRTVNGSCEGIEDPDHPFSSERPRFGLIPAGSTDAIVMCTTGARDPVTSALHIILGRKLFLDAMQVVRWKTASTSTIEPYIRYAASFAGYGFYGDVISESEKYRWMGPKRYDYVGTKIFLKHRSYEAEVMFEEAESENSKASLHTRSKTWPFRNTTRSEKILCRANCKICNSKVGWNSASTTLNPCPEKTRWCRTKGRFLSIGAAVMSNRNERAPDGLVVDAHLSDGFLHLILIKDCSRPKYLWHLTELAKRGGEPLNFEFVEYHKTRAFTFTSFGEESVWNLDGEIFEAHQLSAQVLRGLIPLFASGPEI

[1] = substrate: CCCCCCCCCCCCC/C=C/[C@@H](O)[C@H](CO)NC(=O)CCCCCNc1ccc([N+](=O)[O-])c2nonc12; experiment: TLC with NBD fluorescence scan, Lineweaver-Burk; assay type: biochemical, Oryza sativa; details: ATP 1 mM, 15 mM MgCl2, Triton X-100/cardiolipin mixed micelles, Hepes pH 7.4, 40 °C, labelled compound
[2] = substrate: Nc1ncnc2c1ncn2[C@@H]1O[C@H](COP(=O)(O)OP(=O)(O)OP(=O)(O)O)[C@@H](O)[C@H]1O; experiment: TLC with NBD fluorescence scan, Lineweaver-Burk; assay type: biochemical, Oryza sativa; details: co-substrate C6-NBD-ceramide, 15 mM MgCl2, mixed micelles, Hepes pH 7.4, 40 °C, Discussion b40 prints 36.35 µM

inhibition at 100 µM (OsCERK): ~70%
Molecule: CCCCCCCCCCCCC/C=C/[C@@H](O)[C@H](CO)N(C)C [N,N-dimethylsphingosine]

Molecule: CCCCCCCCCCCCC/C=C/[C@@H](O)[C@H](CO)NC(=O)CCCCCNc1ccc([N+](=O)[O-])c2nonc12 [D-erythro-C6-NBD-ceramide]
TLC with NBD fluorescence scan, turnover (rACD5): phosphorylating C6-NBD-ceramide to give C6-NBD-ceramide-1-phosphate, as did recombinant OsCERK and rACD5

% inhibition at 200 μM (OsCERK; C6-NBD-ceramide, ATP, 15 mM MgCl2, mixed micelles, 40 °C, 0.5% ethanol or methanol as solvent): > 90%
Molecule: O=C(Nc1nc2ccc(NC(=O)C34CC5CC(CC(C5)C3)C4)cc2s1)c1ccccc1 [ceramide kinase inhibitor K1]

B1: OsCERK (Oryza sativa Japonica Group) (protein)
chain: MEGGGEALFLDGVGEVTVAVGDDGLSFQPLHQEVSSSCWSSIIMQPKLESKLKFSDVYAVELLEVGPVCEPWNARATVQGKINTEMNRFVIHTVTRPRKRPSPWVPCEYIFGHKDQQTCKTWVEHIKTCINKEQDRPKSLMVFVHPLCGKGRGCKNWETVAPLFERAKVKTKVIVTQRAGHAYDTLASLSDKDLKKFDGVIAVGGDGLFNEILNGLLSTRHTNSYPPTPEGFGYFRNNMKCQEHRNNDLSNSELTGDDANAISGSSNTPDDHEPLLSTTRSTGLDISSSDSSDEPCNGDQVPLVSFPNNWFRLGIIPSGSTDAIVLSTTGERDPVTSALLIILGRRISLDIAQVVRWKSSPSAEVSPTVRYAASFAGYGFYGEVIRESEKYRWMGPARYDFSGTMVFLKHRSYEAKVAFLENGNTHSLTASAENNANGVQTLQYHQNRHRKTICRTNCLICKGTSTSEQNSEDENPDSSRTACETPKWVWSKGRFLSVGAAVISCRNERAPDGLVADAHLSDGFLHLLLIRDCPLPFYLWHLTQFTKKGSDPLSFKFVEHHKTQAFTFISSHDESVWNLDGELLQACEVSVQAFRGLVNLFASGPEV
notes: N-terminus from primer MEGGGEAL
Km [1]: 4.1 µM
Km [2]: 35.36 µM
